What was measured:
[1] = system: synaptosomes from the striatal area of rat brain (dopamine release); assay: [3H]-dopamine release from striatal synaptosomes of rat brain; type: cell-based, rat (Sprague-Dawley); conditions: evaluated as described in Example 1
Method: Dopamine release was measured by preparing synaptosomes from the striatal area of rat brain generally obtained from Sprague-Dawley rats according to the procedures set forth by Nagy, et al., J. Neurochem., Vol. 43, pp. 1114-1123 (1984). Striata from 4 rats were homogenized in 2 ml of 0.32M sucrose buffered with 5 mM HEPES (pH 7.5), using a glass-teflon tissue grinder. The homogenate was diluted to 5 ml with additional homogenization solution and centrifuged at 1000×g for 10 min. This procedure was repeated on the new pellet and the resulting supernatant was centrifuged at 12,000×g for 20 min. […] Using this method, 30 to 90 percent of the dopamine was taken up into the synaptosomes, as determined by scintillation counting following filtration through glass fiber filters soaked with 0.5 percent polyethyleneimine. […] After the addition of a 0.2 ml of a 20 μM solution of ligand, the perfusate was collected into scintillation vials at 1 min. intervals and the dopamine released was quantified by scintillation counting. Peaks of radioactivity released above background were summed and the average basal release during that time was subtracted from the total. Release was expressed as a percentage of release obtained with an equal concentration of (S)-(-)-nicotine.

[2] = target: nicotinic cholinergic receptors; assay: Inhibition of L-[3H]nicotine binding to mouse brain membranes; parameters: species or system mouse (DBA strain); conditions: racemic mixture of ligand, 10 nM L-[3H]nicotine, 2 hr, 4° C.
Method: Mice (DBA strain) were maintained on a 12 hour light/dark cycle and were allowed free access to water and food supplied by Wayne Lab Blox, Madison, Wis. Animals used in the present studies were 60 to 90 days of age and weighed 20 to 25 g. Brain membrane preparations were obtained from pooled brain tissue of both males and females.
Mice were killed by cervical dislocation. Brains were removed and placed on an ice-cold platform. […] Protein was determined by the method of Lowry, et al., J. Biol. Chem., Vol. 193, pp. 265-275 (1951), using bovine serum albumin as the standard.
The binding of L-[^3 H]nicotine was measured using a modification of the method of Romano, et al., Science, Vol. 210, pp. 647-650 (1980) as described previously by Marks, et al., Mol. Pharmacol., Vol. 30, pp. 427-436 (1986). The binding of L-[^3 H]nicotine was measured using a 2 hr. incubation at 4° C. […] Nonspecific binding was determined by inclusion of 10 μM nonradioactive nicotine in the incubations. The inhibition of L-[^3 H]nicotine binding by test compounds was determined by including one of eight different concentrations of the test compound in the incubation. […] Inhibition constants (Ki values) were calculated from the IC50 values using the method of Cheng, et al., Biochem. Pharmacol., Vol. 22, pp. 3099-3108 (1973). […]

[3] = in vivo; cited from earlier work
[4] = system: nicotinic cholinergic receptors; conditions: acute administration; cited from earlier work
[5] = system: acetylcholine release in brain tissue; conditions: direct action; cited from earlier work
[6] = system: nicotinic cholinergic receptors; conditions: chronic administration to animals; cited from earlier work

CC(=O)C1=C(C)CC2CCC1N2C (stereo not drawn) [Example 3, 2-acetyl-3,8-dimethyl-8-azabicyclo[3.2.1]oct-2-ene]
dopamine release (in words) [1]: found to provide dopamine release

CC(=O)C1=CCC2CCC1N2 (stereo not drawn) [Norferruginine, norferruginine]
Ki [2]: 1100 ± 300 nM

CC(=O)C1=C(C)CC2CCC1N2 (stereo not drawn) [Example 2, 2-acetyl-3-methyl-8-azabicyclo[3.2.1]oct-2-ene]
dopamine release (in words) [1]: found to provide dopamine release

CN1CCCC1c1cccnc1 (stereo not drawn) [nicotine]
attention [3]: enhance attention | cognitive functions [3]: improve cognitive functions | activation of nicotinic cholinergic receptors [4]: suggested to possess an ability to activate nicotinic cholinergic receptors | release of acetylcholine in brain tissue [5]: elicit the release of acetylcholine in brain tissue | number of nicotinic cholinergic receptors [6]: elicit an increase in the number of such receptors

CC(=O)C1=CCC2CCC1N2C (stereo not drawn) [Ferruginine, ferruginine]
Ki [2]: 3100 ± 500 nM

Source: patent US5227385A, “Method for treatment of neurodegenerative diseases” (priority 1992, dated 1993)
